Source: ChEMBL document CHEMBL4321811, “Targeting the γ-Aminobutyric Acid Type B (GABAB) Receptor Complex: Development of Inhibitors Targeting the K+ Channel Tetramerization Domain (KCTD) Containing Proteins/GABAB Receptor Protein-Protein Interaction” (J Med Chem, 2019)
pEC50: −log10 of the molar value. The source made the active and inactive calls. The calls are words filed in the database; no cut-off is given here. Non-standard residues stand in square brackets, D forms with d. Residues, ends and D or L forms follow the SMILES beside them. ξ: configuration not given here. ξS = NC(CO)C(=O)O

Columns and labels:
[1] = target: T1, BTB/POZ domain-containing protein KCTD12 (Homo sapiens, UniProt Q96CX2); assay: Binding affinity to recombinant human 6X His-tagged KCTD12 T1 domain (27 to 131 residues) expressed in Escherichia coli BL21 DE3 cells preincubated for 1 hr followed by probing with HRP-conjugated 6X-His tag antibody for 0.5 hrs by SPOT peptide microarray analysis; details: for pEC50: read-out: EC50
[2] = target: BTB/POZ domain-containing protein KCTD16 (Homo sapiens) (UniProt Q68DU8); assay: Displacement of TAMRA-AAG-SLQLPILHHAYLPSIGGV from recombinant 6X His tagged KCTD16 T1 domain (unknown origin) by fluorescence polarization assay
[3] = target: BTB/POZ domain-containing protein KCTD8 (Homo sapiens) (UniProt Q6ZWB6); assay: Displacement of TAMRA-AAG-SLQLPILHHAYLPSIGGV from recombinant human 6X His-tagged KCTD8 T1 domain (37 to 148 residues) expressed in Escherichia coli BL21 DE3 cells by fluorescence polarization assay
[4] = target: BTB/POZ domain-containing protein KCTD8 (Mus musculus) (UniProt Q50H33); assay: Binding affinity to KCTD8 in wild type mouse brain membrane using resin-bound immobilized compound incubated for overnight by pull-down experiment based immunoblot analysis; type: cell membranes
[5] = target: BTB/POZ domain-containing protein KCTD8 (Mus musculus) (UniProt Q50H33); assay: Binding affinity to KCTD8 in wild type mouse brain cytoplasmic fraction using resin-bound immobilized compound incubated for overnight by pull-down experiment based immunoblot analysis; type: subcellular
[6] = target: BTB/POZ domain-containing protein KCTD16 (Homo sapiens) (UniProt Q68DU8); assay: Binding affinity to recombinant 6X His-tagged KCTD16 T1 domain (unknown origin) assessed as high-order oligomer formation by measuring oligomer molecular weight at protein:compound concentration ratio of 1:2 by SEC-MALS analysis (reference value: […] +/- 2.5 kDa)
[7] = target: BTB/POZ domain-containing protein KCTD12 (Mus musculus) (UniProt Q6WVG3); assay: Binding affinity to KCTD12 in wild type mouse brain cytoplasmic fraction using resin-bound immobilized compound incubated for overnight by pull-down experiment based immunoblot analysis; type: subcellular
[8] = target: BTB/POZ domain-containing protein KCTD16 (Homo sapiens) (UniProt Q68DU8); assay: Binding affinity to Myc-tagged full length KCTD16 (unknown origin) expressed in HEK293 cells using resin-bound immobilized compound by pull down analysis; type: cell-based
[9] = target: BTB/POZ domain-containing protein KCTD16 (Homo sapiens) (UniProt Q68DU8); assay: Binding affinity to recombinant 6X His-tagged KCTD16 T1 domain (unknown origin) assessed as increase in thermal stability of the protein at protein:compound ratio of 1:5 by Thermofluor analysis
[10] = target: BTB/POZ domain-containing protein KCTD16 (Mus musculus) (UniProt Q5DTY9); assay: Binding affinity to KCTD16 in wild type mouse brain cytoplasmic fraction using resin -bound immobilized compound incubated for overnight by pull-down experiment based immunoblot analysis; type: subcellular
[11] = target: BTB/POZ domain-containing protein KCTD16 (Mus musculus) (UniProt Q5DTY9); assay: Binding affinity to KCTD16 in wild type mouse brain membrane using resin-bound immobilized compound incubated for overnight by pull-down experiment based immunoblot analysis; type: cell membranes
[12] = target: BTB/POZ domain-containing protein KCTD12 (Mus musculus) (UniProt Q6WVG3); assay: Binding affinity to KCTD12 in wild type mouse brain membrane using resin-bound immobilized compound incubated for overnight by pull-down experiment based immunoblot analysis; type: cell membranes
[13] = target: BTB/POZ domain-containing protein KCTD8 (Homo sapiens) (UniProt Q6ZWB6); assay: Binding affinity to Myc-tagged full length KCTD8 (unknown origin) expressed in HEK293 cells using resin-bound immobilized compound by pull down analysis; type: cell-based
[14] = target: T1, BTB/POZ domain-containing protein KCTD12; assay: Displacement of TAMRA-AAG-SLQLPILHHAYLPSIGGV from recombinant human 6X His-tagged KCTD12 T1 domain (27 to 131 residues) expressed in Escherichia coli BL21 DE3 cells by fluorescence polarization assay

T1 sequence (Q96CX2 whole entry, the tested form may be a part): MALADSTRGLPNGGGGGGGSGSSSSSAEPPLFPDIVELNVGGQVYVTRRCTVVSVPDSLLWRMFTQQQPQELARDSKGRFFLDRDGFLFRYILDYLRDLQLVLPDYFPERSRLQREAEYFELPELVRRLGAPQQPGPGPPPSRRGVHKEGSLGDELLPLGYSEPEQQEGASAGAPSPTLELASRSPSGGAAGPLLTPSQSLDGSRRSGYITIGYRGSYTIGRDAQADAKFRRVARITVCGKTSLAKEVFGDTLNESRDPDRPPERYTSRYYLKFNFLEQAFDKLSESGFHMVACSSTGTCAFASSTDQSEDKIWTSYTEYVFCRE
BTB/POZ domain-containing protein KCTD12 (Mus musculus), sequence (Q6WVG3 whole entry, the tested form may be a part): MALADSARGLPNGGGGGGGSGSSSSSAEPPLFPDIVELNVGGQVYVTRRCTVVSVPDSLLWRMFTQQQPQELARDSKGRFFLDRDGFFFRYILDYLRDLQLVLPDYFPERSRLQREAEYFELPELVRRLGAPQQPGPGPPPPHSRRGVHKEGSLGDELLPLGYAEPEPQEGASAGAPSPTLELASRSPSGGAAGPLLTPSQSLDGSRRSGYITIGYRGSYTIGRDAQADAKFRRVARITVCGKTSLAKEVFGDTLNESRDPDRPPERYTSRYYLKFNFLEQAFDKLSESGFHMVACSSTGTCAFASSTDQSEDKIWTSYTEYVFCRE
BTB/POZ domain-containing protein KCTD16 (Homo sapiens), sequence (Q68DU8 whole entry, the tested form may be a part): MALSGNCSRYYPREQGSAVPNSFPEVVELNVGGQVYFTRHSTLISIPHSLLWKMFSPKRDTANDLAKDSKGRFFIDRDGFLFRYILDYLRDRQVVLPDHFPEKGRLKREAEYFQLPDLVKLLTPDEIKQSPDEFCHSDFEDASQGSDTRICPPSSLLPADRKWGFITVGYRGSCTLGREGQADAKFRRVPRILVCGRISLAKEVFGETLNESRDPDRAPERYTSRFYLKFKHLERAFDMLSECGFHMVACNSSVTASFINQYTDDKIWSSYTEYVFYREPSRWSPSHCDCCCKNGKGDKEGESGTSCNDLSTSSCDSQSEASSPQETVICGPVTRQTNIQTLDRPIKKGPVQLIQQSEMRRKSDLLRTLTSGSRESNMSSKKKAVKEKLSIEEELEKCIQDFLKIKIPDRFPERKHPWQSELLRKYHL
BTB/POZ domain-containing protein KCTD8 (Homo sapiens), sequence (Q6ZWB6 whole entry, the tested form may be a part): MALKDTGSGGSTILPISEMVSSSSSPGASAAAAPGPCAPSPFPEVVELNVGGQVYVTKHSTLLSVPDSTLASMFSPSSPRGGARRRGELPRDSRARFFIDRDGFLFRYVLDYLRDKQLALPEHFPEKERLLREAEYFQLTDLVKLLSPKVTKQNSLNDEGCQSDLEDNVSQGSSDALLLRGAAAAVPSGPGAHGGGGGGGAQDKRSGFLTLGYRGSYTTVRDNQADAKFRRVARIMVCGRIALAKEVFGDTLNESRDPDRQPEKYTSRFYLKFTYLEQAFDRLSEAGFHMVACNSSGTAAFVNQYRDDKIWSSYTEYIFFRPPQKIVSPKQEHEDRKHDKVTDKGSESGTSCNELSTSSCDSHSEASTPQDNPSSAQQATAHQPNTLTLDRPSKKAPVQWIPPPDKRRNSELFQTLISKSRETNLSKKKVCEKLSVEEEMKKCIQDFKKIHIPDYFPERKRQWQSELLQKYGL
BTB/POZ domain-containing protein KCTD8 (Mus musculus), sequence (Q50H33 whole entry, the tested form may be a part): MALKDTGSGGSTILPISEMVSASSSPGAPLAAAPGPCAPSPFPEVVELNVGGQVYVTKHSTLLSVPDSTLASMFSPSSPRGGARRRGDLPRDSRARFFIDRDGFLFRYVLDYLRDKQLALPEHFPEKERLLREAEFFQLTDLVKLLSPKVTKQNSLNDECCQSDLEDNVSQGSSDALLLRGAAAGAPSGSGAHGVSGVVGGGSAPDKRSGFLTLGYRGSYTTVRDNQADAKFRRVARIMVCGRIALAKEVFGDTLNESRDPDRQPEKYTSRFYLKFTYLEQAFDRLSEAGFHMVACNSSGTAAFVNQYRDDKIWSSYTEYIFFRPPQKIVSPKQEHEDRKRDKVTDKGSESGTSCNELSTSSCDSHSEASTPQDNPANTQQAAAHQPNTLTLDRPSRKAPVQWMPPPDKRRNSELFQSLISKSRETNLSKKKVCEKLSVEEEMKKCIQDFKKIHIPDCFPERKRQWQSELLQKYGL
BTB/POZ domain-containing protein KCTD16 (Mus musculus), sequence (Q5DTY9 whole entry, the tested form may be a part): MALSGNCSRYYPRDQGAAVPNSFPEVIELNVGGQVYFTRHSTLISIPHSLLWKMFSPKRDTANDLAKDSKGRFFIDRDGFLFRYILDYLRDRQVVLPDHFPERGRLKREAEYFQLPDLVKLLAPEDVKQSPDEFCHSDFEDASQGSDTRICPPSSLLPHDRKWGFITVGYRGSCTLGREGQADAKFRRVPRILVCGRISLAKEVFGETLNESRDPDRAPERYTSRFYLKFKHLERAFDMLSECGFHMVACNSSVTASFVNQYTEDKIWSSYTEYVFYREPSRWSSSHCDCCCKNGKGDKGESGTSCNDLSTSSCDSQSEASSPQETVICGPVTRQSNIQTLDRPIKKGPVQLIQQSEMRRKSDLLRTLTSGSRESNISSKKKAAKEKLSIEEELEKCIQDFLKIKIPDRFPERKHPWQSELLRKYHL

CC(C)C[C@H](NC(=O)[C@H](CCCNC(=N)N)NC(=O)[C@H](CC(=O)O)NC(=O)[C@@H]1CCCN1C(=O)[C@@H]1CCCN1C(=O)[C@H](CCC(=O)O)NC(=O)[C@@H]1CCCN1)C(=O)N[C@@H](CO)C(=O)N[C@@H](CS)C(=O)N[C@@H](CC(=O)O)C(=O)NCC(=O)N[C@@H](CO)C(=O)N[C@@H](CCCNC(=N)N)C(=O)N[C@H](C(=O)N[C@@H](Cc1cnc[nH]1)C(=O)O)C(C)C
EC50 [1]: Not Active

CC(C)C[C@H](NC(=O)CNC(=O)CNC(=O)[C@H](CO)NC(=O)[C@@H]1CCCN1C(=O)[C@H](CCC(=O)O)NC(=O)[C@@H]1CCCN1C(=O)[C@@H]1CCCN1C(=O)[C@H](NC(=O)[C@@H]1CCCN1C(=O)[C@@H]1CCCN1C(=O)[C@H](Cc1cnc[nH]1)NC(=O)[C@H](CCCNC(=N)N)NC(=O)[C@@H](N)CCCNC(=N)N)[C@@H](C)O)C(=O)N1CCC[C@H]1C(=O)O
EC50 [1]: Not Active

CC[C@H](C)[C@H](NC(=O)[C@H](CO)NC(=O)[C@@H]1CCCN1C(=O)[C@H](CC(C)C)NC(=O)[C@H](Cc1ccc(O)cc1)NC(=O)[C@H](C)NC(=O)[C@H](Cc1cnc[nH]1)NC(=O)[C@H](Cc1cnc[nH]1)NC(=O)[C@H](CC(C)C)NC(=O)[C@H](NC(=O)[C@@H]1CCCN1C(=O)[C@H](CC(C)C)NC(=O)[C@H](CCC(N)=O)NC(=O)[C@H](CC(C)C)NC(=O)[C@H](CO)NC(=O)[C@H](CC(C)C)NC(=O)[C@H](CCCNC(=N)N)NC(=O)[C@@H](N)CCCNC(=N)N)[C@@H](C)CC)C(=O)O
Activity [2]: Active | Activity [3]: Active

CC[C@H](C)[C@H](NC(=O)[C@H](CO)NC(=O)[C@@H]1CCCN1C(=O)[C@H](CC(C)C)NC(=O)[C@H](Cc1ccc(O)cc1)NC(=O)[C@H](C)NC(=O)[C@H](Cc1cnc[nH]1)NC(=O)[C@H](Cc1cnc[nH]1)NC(=O)[C@H](CC(C)C)NC(=O)[C@H](NC(=O)[C@@H]1CCCN1C(=O)[C@H](Cc1ccc(O)cc1)NC(=O)[C@H](CC(N)=O)NC(=O)[C@H](Cc1ccc(O)cc1)NC(=O)[C@H](N)Cc1ccc(O)cc1)[C@@H](C)CC)C(=O)NCC(=O)NCC(=O)N[C@H](C(=O)O)C(C)C
Activity [4]: Active | Activity [5]: Active | Activity [6]: 60.1 kDa | Activity [7]: Active | Activity [8]: Active | Activity [9]: Active | Activity [10]: Active | Activity [11]: Active | Activity [12]: Active | Activity [13]: Active

CC[C@H](C)[C@H](NC(=O)C(CO)NC(=O)[C@@H]1CCCN1C(=O)[C@H](CC(C)C)NC(=O)[C@H](C)NC(=O)[C@H](C)NC(=O)[C@H](Cc1cnc[nH]1)NC(=O)[C@H](Cc1cnc[nH]1)NC(=O)[C@H](CC(C)C)NC(=O)[C@@H](NC(=O)[C@@H]1CCCN1C(=O)[C@H](CC(C)C)NC(=O)[C@H](CCC(N)=O)NC(=O)[C@H](CC(C)C)NC(=O)[C@@H](N)CO)[C@@H](C)CC)C(=O)NCC(=O)NCC(=O)N[C@H](C(=O)O)C(C)C (some centres not stated) (H-SLQLPILHHAALP[ξS]IGGV-OH)
EC50 [1]: Not Active | IC50 [14]: Not Active | Ki [14]: Not Active

CC[C@H](C)[C@H](NC(=O)C(CO)NC(=O)[C@@H]1CCCN1C(=O)[C@H](CC(C)C)NC(=O)[C@H](Cc1ccccc1)NC(=O)[C@H](C)NC(=O)[C@H](Cc1cnc[nH]1)NC(=O)[C@H](Cc1cnc[nH]1)NC(=O)[C@H](CC(C)C)NC(=O)[C@@H](NC(=O)[C@@H]1CCCN1C(=O)[C@H](CC(C)C)NC(=O)[C@H](CCC(N)=O)NC(=O)[C@H](CC(C)C)NC(=O)[C@@H](N)CO)[C@@H](C)CC)C(=O)NCC(=O)NCC(=O)N[C@H](C(=O)O)C(C)C (some centres not stated) (H-SLQLPILHHAFLP[ξS]IGGV-OH)
EC50 [1]: Not Active | IC50 [14]: Not Active | Ki [14]: Not Active

H-AEKEERVSELRHQLQ-OH
EC50 [1]: Not Active

H-EAQDTMKTGSSTNNN-OH
EC50 [1]: Not Active

H-EEKSRLLEKENRELE-OH
EC50 [1]: Not Active

H-EKIIAEKEERVSELR-OH
EC50 [1]: Not Active

H-ELEKIIAEKEERVSE-OH
EC50 [1]: Not Active

H-EPSGGLPRGPPEPPD-OH
EC50 [1]: Not Active

H-GLPRGPPEPPDRLSC-OH
EC50 [1]: Not Active

H-GPPEPPDRLSCDGSR-OH
EC50 [1]: Not Active

H-GSSTNNNEEEKSRLL-OH
EC50 [1]: Not Active

H-HPPTPPEPSGGLPRG-OH
EC50 [1]: Not Active

H-IIAEKEERVSELRHQ-OH
EC50 [1]: Not Active

H-KEERVSELRHQLQSR-OH
EC50 [1]: Not Active

H-KENRELEKIIAEKEE-OH
EC50 [1]: Not Active

H-KSRLLEKENRELEKI-OH
EC50 [1]: Not Active

H-KTGSSTNNNEEEKSR-OH
EC50 [1]: Not Active

H-LEKENRELEKIIAEK-OH
EC50 [1]: Not Active

H-LPILHHAYLPSIGGV-OH
Activity [1]: Active

H-LQLPILHHAYLPSIG-OH
Activity [1]: Active

H-NEEEKSRLLEKENRE-OH
EC50 [1]: Not Active

H-NNNEEEKSRLLEKEN-OH
EC50 [1]: Not Active

H-NRELEKIIAEKEERV-OH
EC50 [1]: Not Active

H-PPEPSGGLPRGPPEP-OH
EC50 [1]: Not Active

H-PRGPPEPPDRLSCDG-OH
EC50 [1]: Not Active

H-PTPPEPSGGLPRGPP-OH
EC50 [1]: Not Active

H-QDTMKTGSSTNNNEE-OH
EC50 [1]: Not Active

H-QLPILHHAYLPSIGG-OH
Activity [1]: Active

H-RLLEKENRELEKIIA-OH
EC50 [1]: Not Active

H-SGGLPRGPPEPPDRL-OH
EC50 [1]: Not Active

H-SLQLPIAHHAALPSIGGV-OH
Activity [4]: inactive | Activity [5]: inactive | Activity [7]: inactive | Activity [8]: inactive | Activity [10]: inactive | Activity [11]: inactive | Activity [12]: inactive | Activity [13]: inactive

H-SLQLPILHHAYLPSI-OH
Activity [1]: Active

H-SLQLPILHHAYLPSIGGV-OH
Activity [4]: Active | Activity [2]: Active | Activity [5]: Active | Activity [6]: 66.4 kDa | Activity [7]: Active | Activity [8]: Active | Activity [9]: Active | Activity [3]: Active | Activity [10]: Active | Activity [11]: Active | Activity [12]: Active | Activity [13]: Active

H-SLQLPILHHAYLPSYHYY-OH
pEC50 [1]: 6.68 | IC50 [14]: Nd(Insoluble) | Ki [14]: Nd(Insoluble)

H-SLQLPILHHAYLPYYHYY-OH
pEC50 [1]: 5.87 | IC50 [14]: Nd(Insoluble) | Ki [14]: Nd(Insoluble)

H-STNNNEEEKSRLLEK-OH
EC50 [1]: Not Active

H-TMKTGSSTNNNEEEK-OH
EC50 [1]: Not Active
